Test results taken from article PMC7059070, “Synthesis and in-vitro Evaluation of S-allyl Cysteine Ester - Caffeic Acid Amide Hybrids as Potential Anticancer Agents” (Iranian Journal of Pharmaceutical Research : IJPR, 2019).
In brackets after ≈: the same amount, converted by molar mass. Where two headings read alike, the source gives them in different places.

What was measured:
[1] = test system: non-malignant CHO-K1 cell line; assay: Cell viability, sulforhodamine B (SRB) assay, CHO-K1 cells; assay type: cell-based; conditions: Cricetulus griseus
Experimental: (§1) Biological assays were performed using an adenocarcinoma colon cancer cell line (SW480) and non-malignant cells (CHO-K1). These were obtained from the European Collection of Authenticated Cell Cultures (ECACC, England) and maintained in Dulbecco’s Modified Eagle Medium, supplemented with 10% heat-inactivated (56 °C) horse serum, 1% penicillin/streptomycin and 1% non-essential amino acids (Gibco Invitrogen, Carlsbad, USA). For all experiments, horse serum was reduced to 3%, and the medium was supplemented with […] transferrin, 5 ng/mL selenium and […] insulin (ITS-defined medium; Gibco, Invitrogen, Carlsbad, USA) ([32]).
(§2) The cell viability of the synthesized hybrids, lead, and reference compounds was evaluated through Sulforhodamine B (SRB) assay, a colorimetric test that is based on staining of total cellular protein of adherent cells. The cells were seeded to a ﬁnal density of 20.000 cells/well in 96-well tissue culture plates and incubated at 37 °C in a humidified atmosphere at 5% CO2. […] After treatment, the cells were fixed with trichloroacetic acid (50% v/v) (MERCK) for a period of one h at 4 °C. The cell proteins were determined by staining with 0.4% (w/v) SRB (Sigma-Aldrich, United States), then they were washed with 1% acetic acid for the removal of unbound SRB and left for air-drying. Protein bound SRB was solubilized in 10 mM Tris-base and the absorbance was measured at 492 nm in a microplate reader (Mindray MR-96A) ([33]). All of the experiments were performed at least in quintuplicate.

[2] = test system: SW480 human colon adenocarcinoma cells; assay: Cell viability, sulforhodamine B (SRB) assay, SW480 cells; assay type: cell-based; conditions: for IC50: Homo sapiens, SW480 cells, SRB; for SI (selectivity index), 24 h: ratio of IC50 against CHO-K1 to IC50 against SW480, 24 h; for SI (selectivity index), 48 h: ratio of IC50 against CHO-K1 to IC50 against SW480, 48 h
Experimental: as §1, §2

[3] = test system: SW480 cells; assay: Mitochondrial membrane potential (ΔΨm), DiOC6/PI flow cytometry; assay type: cell-based, human; conditions: SW480, treated at IC50, 48 h; for PI+ cells: cells in process of death; for DiOC6 low cells: cells that lose membrane polarization; for DiOC6 high cells: live cells with high membrane polarization; for Mitochondrial membrane depolarization in words: vs control
Experimental: Mitochondrial membrane permeability changes were assessed through the fluorescent dye DiOC6 (3,3’-dihexyloxacarbocyanine iodide, Thermo Fisher Scientiﬁc, Waltham, MA, USA), and propidium iodide (PI). The cells were seeded to a ﬁnal density of 2.5 x 10^5 cells/well in 6-well tissue culture plates and were allowed to grow for 24 h. […] The cells were collected to analyze 10,000 events by ﬂow cytometry with excitation at 488 nm and detection of the emission with the green (530/15 nm) and the red (610/20 nm) ﬁlters. This method allowed us quantifying cells with depolarized mitochondrial membrane ([34]).

[4] = test system: SW480 cells; assay: Cell cycle analysis, propidium iodide flow cytometry; assay type: cell-based, human; conditions: SW480, treated at IC50, 48 h
Experimental: Cell cycle distribution was analyzed by labelling cells with propidium iodide (PI). Assays were carried out as described by Nicoletti et al. (1991). In brief, cells were seeded in 6-well tissue culture plates at a density of 2.5 x 10^5 cells/well, incubated at 37 °C in a 5% CO2 atmosphere. […] After the treatment, the cells were collected by scraping and the centrifuged cell pellet was resuspended with phosphate buffered saline (PBS). The cell suspension was fixed in 1.8 mL 70% ethanol at 4°C overnight, afterward, these were centrifuged, washed twice in PBS and resuspended in 300 µL of PBS containing 0.25 mg/mL RNAse (Type I-A, Sigma-Aldrich, Germany) and 0.1 mg/mL PI. Following the incubation in the dark at room temperature for 30 min, the PI ﬂuorescence of 10,000 cells was analyzed using a FACS Canto II ﬂow cytometer and the software BD FACS Diva 6.1.3. (BD Biosciences, San Jose). PI signal was analyzed with excitation at 488 nm, using a Sapphire laser, and fluorescence was detected at 610nm. The cell clumps were excluded with the PI-Area vs PI-Width signals. The cell cycle model was ﬁxed using the software FlowJo 7.6.2 (Ashland, OR, USA), applying the Dean-Jett-Fox model ([34], [35]).

[5] = test system: SW480 cells; assay: Antiproliferative activity, SRB assay over 0-8 days; assay type: cell-based, human; conditions: 0.1-0.55 mM, p ≤ 0.05 vs control
Experimental: Briefly, the cells were seeded to a ﬁnal density of 2500 cells/well in 96-well tissue culture plates and incubated in the same conditions described for viability. […] Culture media was replaced every 48 h. After each incubation time, the cells were fixed, stained, and read as previously described for this technique ([32]).

[6] = test system: human gastric carcinoma cell line BGC-823; design: method as in PMID 19272773; conditions: cited from earlier work
[7] = test system: human hepatoma cell line BEL-7402; design: method as in PMID 19272773; conditions: cited from earlier work
[8] = test system: human nasopharyngeal carcinoma cell line KB; design: method as in PMID 19272773; conditions: cited from earlier work
[9] = 24 h treatment, read-out: IC50 (mM) CHO-K1 cells, 24 h
[10] = 48 h treatment, read-out: IC50 (mM) CHO-K1 cells, 48 h
[11] = 24 h treatment, read-out: IC50 (mM) SW480 cells, 24 h
[12] = 48 h treatment, read-out: IC50 (mM) SW480 cells, 48 h

SMILES	melting point [°C]	IC50 [1, 9] [mM]	IC50 [1, 10] [mM]	IC50 [2, 11] [mM]	IC50 [2, 12] [mM]	SI (selectivity index), 24 h [2]	SI (selectivity index), 48 h [2]	Cytotoxic activity in words ([2]; at 24 h and 48 h after treatment)	PI+ cells [3]	DiOC6 low cells [3]	DiOC6 high cells [3]	Cells in G2/M phase [4] [%]	Effect on cell cycle in words [4]	Day from which significant antiproliferative activity was displayed [5] [days]	Mitochondrial membrane depolarization in words [3]	Cells in G0/G1 phase [4] [%]	Cells in S phase [4] [%]	IC50 against BGC-823 [6] [µg/mL]	IC50 against BEL-7402 [7] [µg/mL]	IC50 against KB [8] [µg/mL]
C=CCSC[C@H](N)C(=O)OC [3a, S-Allylcysteine methyl ester]	114 to 116	1.85	> 10	> 10	> 10	<0.19														
C=CCSC[C@H](N)C(=O)OCCC [3c, Propyl S-prop-2-en-1-ylcysteinate]	115 to 117	1.5	1.24	> 10	1.28	<0.15	0.97													
O=c1[nH]cc(F)c(=O)[nH]1 [5-Fluorouracil, 5-fluorouracil, reference compound]		0.091	0.048	0.062	0.035		1.34													
C=CCSC[C@H](NC(=O)/C=C/c1ccc(OC(C)=O)c(OC(C)=O)c1)C(=O)OC [6a, Methyl N-{(2E)-3-[3,4-bis(acetyloxy)phenyl]prop-2-enoyl}-S-prop-2-en-1-ylcysteinate]		2.77	7.83	0.67	> 10															
C=CCSC[C@H](NC(=O)/C=C/c1ccc(OC(C)=O)c(OC(C)=O)c1)C(=O)OCC [6b, Ethyl N-{(2E)-3-[3,4-bis(acetyloxy)phenyl]prop-2-enoyl}-S-prop-2-en-1-ylcysteinate]		3.84	> 10	> 10	> 10			did not exhibit activity												
C=CCSC[C@H](NC(=O)/C=C/c1ccc(OC(C)=O)c(OC(C)=O)c1)C(=O)OCCC [6c, Propyl N-{(2E)-3-[3,4-bis(acetyloxy)phenyl]prop-2-enoyl}-S-prop-2-en-1-ylcysteinate]	80 to 82	0.27	1.25	1.02	> 10	0.26	<0.13													
C=CCSC[C@H](NC(=O)/C=C/c1ccc(OC(C)=O)c(OC(C)=O)c1)C(=O)OCCCC [6d, Butyl N-{(2E)-3-[3,4-bis(acetyloxy)phenyl]prop-2-enoyl}-S-prop-2-en-1-ylcysteinate]		0.21	9.97	2.79	> 10															
C=CCSC[C@H](NC(=O)/C=C/c1ccc(OC(C)=O)c(OC(C)=O)c1)C(=O)OCCCCC [6e, Pentyl N-{(2E)-3-[3,4-bis(acetyloxy)phenyl]prop-2-enoyl}-S-prop-2-en-1-ylcysteinate]	101 to 103	0.26	1.84	0.68	0.18	0.40	10.3		9,38%	39,9%	51,0%	22.7	cell cycle arrest in G2/M phase	2						
C=CCSC[C@H](NC(=O)/C=C/c1ccc(O)c(O)c1)C(=O)OC [9a, Methyl N-[(2E)-3-(3,4-dihydroxyphenyl)-2-propenoyl]-S-2-propen-1-yl-L-cysteinate]	101 to 103	0.47	0.18	0.24	0.12	2.0	1.5		8,16%	62,9%	29,4%	18.8	cell cycle arrest in G2/M phase		highest activity					
C=CCSC[C@H](NC(=O)/C=C/c1ccc(O)c(O)c1)C(=O)OCC [9b, Ethyl N-[(2E)-3-(3,4-dihydroxyphenyl)-2-propenoyl]-S-2-propen-1-yl-L-cysteinate]		> 10	> 10	0.93	0.12				21,9%	36,5%	42,0%		did not have any impact on the cell cycle							
C=CCSC[C@H](NC(=O)/C=C/c1ccc(O)c(O)c1)C(=O)OCCC [9c, Propyl N-[(2E)-3-(3,4-dihydroxyphenyl)-2-propenoyl]-S-2-propen-1-yl-L-cysteinate]		0.12	> 10	0.1	0.11				9,13%	45,0%	44,5%		S- phase			67.3	23			
C=CCSC[C@H](NC(=O)/C=C/c1ccc(O)c(O)c1)C(=O)OCCCC [9d, Butyl N-[(2E)-3-(3,4-dihydroxyphenyl)-2-propenoyl]-S-2-propen-1-yl-L-cysteinate]	119 to 121	> 10	> 10	0.11	0.15	>90.91	>66.67							4						
C=CCSC[C@H](NC(=O)/C=C/c1ccc(O)c(O)c1)C(=O)OCCCCC [9e, Pentyl N-[(2E)-3-(3,4-dihydroxyphenyl)-2-propenoyl]-S-2-propen-1-yl-L-cysteinate]		0.21	> 10	0.2	0.12				8,32%	59,9%	32,5%	22.3	cell cycle arrest in G2/M phase	2	highest activity					
O=C(O)/C=C/c1ccc(O)c(O)c1 [Caffeic acid]		> 10	> 10	7.06	3.47	>1.42	>2.88													
C=CCSC[C@H](N)C(=O)O [S-Allylcysteine, reference compound]		> 10	> 10	> 10	0.38	>1.0	>26.32													
Cc1cccc(NC(=O)/C(C#N)=C/c2cc(O)c(O)c([N+](=O)[O-])c2)c1 [cyanoamide derivative 5]																		5.6 (≈ 16.5 µM)	12.5 (≈ 36.8 µM)	13.1 (≈ 38.6 µM)
